Tests used:
HUVECs = assay: Nitric oxide production in endothelial cells (DAF 2-DA fluorescence); type: cell-based, human; conditions: HUVECs incubated 24 hours
Method: c. HGF and compounds of the invention stimulate nitric oxide production in endothelial cells. HUVECs are incubated with either vehicle, HGF/SF, instant compounds, or SNAP for 24 hours, loaded with the nitric oxide-sensitive fluorescence indicator DAF 2-DA and imaged under a laser scanning confocal microscope.

MDCK cells = assay: Anti-apoptotic activity in cultured cell lines (adriamycin); type: cell-based; conditions: pretreatment; HUVEC and MDCK cell lines
From the text: a. HGF/SF and instant compounds have significant anti-apoptotic activity in cultured cell lines.

LX2 cells = assay: Antifibrotic activity in hepatic stellate cells; type: cell-based, human; conditions: serum starved (activated) LX2 cells
From the text: a. Antifibrotic Activity in Hepatic Stellate Cells.

Row | Compound | nitric oxide production (DAF 2-DA fluorescence) (HUVECs) | cell viability (MDCK cells) | collagen I mRNA expression (LX2 cells)
1 | CC(=O)N[C@@H](C(=O)O)C(C)(C)SN=O (racemic) [SNAP, reference compound] | significant increase in fluorescence |  | 
2 | HGF/SF: Scatter factor, also known as hepatocyte growth factor; pleiotropic growth factor, heparin-binding heterodimeric protein | significant increase in fluorescence | significantly improves the cell viability | decrease in collagen I mRNA expression

Source: US20130190376A1, “METHODS OF USE OF SMALL MOLECULE MODULATORS OF HEPATOCYTE GROWTH FACTOR (SCATTER FACTOR) ACTIVITY” (priority 2010, published 2013)
